Read-outs that look alike come from different tables or passages of the source.
Legend:
[1] = molecular target: T1, Human cyclooxygenase 2 (COX-2) (Homo sapiens, UniProt P35354); experiment: COX-2 inhibition, microsomal assay; settings: 20 min, read-out: % Inhibition of COX Enzymes in Microsomal Assays, COX-2
T1 sequence (P35354 18-604): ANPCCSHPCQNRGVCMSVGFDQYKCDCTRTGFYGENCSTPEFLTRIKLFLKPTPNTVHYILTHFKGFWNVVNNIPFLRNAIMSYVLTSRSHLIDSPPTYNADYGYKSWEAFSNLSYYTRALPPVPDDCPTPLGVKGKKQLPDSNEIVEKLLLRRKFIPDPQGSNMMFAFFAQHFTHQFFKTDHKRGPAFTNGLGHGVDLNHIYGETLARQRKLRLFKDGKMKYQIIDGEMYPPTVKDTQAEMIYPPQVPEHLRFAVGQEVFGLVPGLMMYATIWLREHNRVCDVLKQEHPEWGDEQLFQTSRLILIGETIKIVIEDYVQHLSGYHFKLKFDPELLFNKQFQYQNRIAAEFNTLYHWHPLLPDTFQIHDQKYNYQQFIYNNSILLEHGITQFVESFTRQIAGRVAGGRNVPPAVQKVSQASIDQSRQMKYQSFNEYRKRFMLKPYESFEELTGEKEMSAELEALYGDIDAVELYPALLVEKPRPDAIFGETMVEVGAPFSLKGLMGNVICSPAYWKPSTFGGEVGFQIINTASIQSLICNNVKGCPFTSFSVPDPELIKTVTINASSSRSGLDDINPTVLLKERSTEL
Description: (§1) Human cyclooxygenase 1 and 2 are expressed in a baculovirus expression system using High 5 insect cells. Microsomal fractions prepared from the cells are stored at -80° C. The assays are performed at room temperature in phosphate buffered saline. After incubating the COX-1 or COX-2 microsomes with hematin (2 μM), phenol (0.5 mM) and reduced glutathione (1 mM) for 5 minutes, inhibitor or DMSO vehicle is added and allowed to incubate for 20 minutes. Arachidonic acid (2 μM) is added and after 20 minutes the reaction is stopped by the addition of HCl (0.1 N HCl final concentration).
(§2) The inhibitory activities against COX-1 and COX-2 of the compounds described in the above Synthetic Examples were determined using the two in vitro assays described above.

[2] = molecular target: Human cyclooxygenase 1 (COX-1) (Homo sapiens, UniProt P23219); experiment: COX-1 inhibition, microsomal assay; settings: 20 min, read-out: % Inhibition of COX Enzymes in Microsomal Assays, COX-1
Chain of Human cyclooxygenase 1 (COX-1) (P23219 24-599): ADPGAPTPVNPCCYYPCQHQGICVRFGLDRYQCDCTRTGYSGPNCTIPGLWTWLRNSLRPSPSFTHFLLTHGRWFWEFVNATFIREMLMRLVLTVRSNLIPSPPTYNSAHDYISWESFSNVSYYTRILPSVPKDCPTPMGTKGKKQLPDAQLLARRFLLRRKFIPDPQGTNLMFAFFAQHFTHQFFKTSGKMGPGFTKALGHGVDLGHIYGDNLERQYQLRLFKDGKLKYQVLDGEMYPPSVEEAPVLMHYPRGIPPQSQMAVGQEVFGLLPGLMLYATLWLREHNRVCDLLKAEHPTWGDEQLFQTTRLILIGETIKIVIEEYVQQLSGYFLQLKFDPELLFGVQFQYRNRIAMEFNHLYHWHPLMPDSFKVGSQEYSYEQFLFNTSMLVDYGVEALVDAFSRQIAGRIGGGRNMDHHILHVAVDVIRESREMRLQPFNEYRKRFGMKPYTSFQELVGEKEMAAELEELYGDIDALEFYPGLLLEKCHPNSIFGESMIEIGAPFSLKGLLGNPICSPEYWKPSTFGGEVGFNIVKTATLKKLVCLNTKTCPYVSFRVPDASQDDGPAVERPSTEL
Description: as §1, §2

[3] = system: Carrageenan-induced paw edema; experiment: Carrageenan-Induced Paw Edema in Rats; assay type: in vivo, rat; settings: oral, 10 mg/kg; *p < 0.05
Description: The antiinflammatory activities of two compounds in accordance with the invention (those of Examples 1 and 10) were determined in vivo and compared to those of the known antiinflammatory agents indomethacin and meloxicam, using the Carrageenan-Induced Paw Edema in Rats protocol described by C. A Winter et al. J. Pharmacol. Exp. Ther. 1963, 141, 369. Test compounds were administered orally.

human recombinant COX-2 = molecular target: T2, human recombinant COX-2 (Homo sapiens, UniProt P35354); experiment: COX-2 inhibition, COS cell assay; assay type: cell-based; settings: for inhibition at 1 µM / inhibition at 10 µM / inhibition at 0.1 µM: COS, read-out: Inhibition of COX Enzymes in COS Cell Assays, COX-2 % inhibition; for IC50: COS cells, COX-2, read-out: Inhibition of COX Enzymes in COS Cell Assays, COX-2 IC50
T2 construct: expressed in transfected cells; host or cells: Cos-A2 cells, stably transfected
T2 sequence (P35354 18-604): T1 sequence (P35354 18-604)
Description: (§3) Cos-A2 cells stably transfected with human recombinant COX-1 or COX-2 are cultured in 96 well tissue culture plates with Dulbecco's Modified Eagle Medium supplemented with 10% fetal bovine serum, glutamine (2 mM), penicillin (50 U/mL), streptomycin ([…]) and geneticin (400 μg/mL). Media is removed from confluent monolayers and the cells are washed twice with Hank's buffered saline solution. Fresh HBSS is added, with or without inhibitor, and the cells are incubated for 30 minutes at 37° C. Arachidonic acid (30 μM) is then added and the cells are incubated for an additional one hour at 37° C. Individual experiments represent a mean of triplicate wells for control and inhibitor doses. Supernatents are removed and stored at -80° C. until assayed for PGE2 by EIA (Amersham).
as §2

human recombinant COX-1 = molecular target: T3, human recombinant COX-1 (Homo sapiens, UniProt P23219); experiment: COX-1 inhibition, COS cell assay; assay type: cell-based; settings: for inhibition at 1 µM / inhibition at 10 µM / inhibition at 0.1 µM: COS, read-out: Inhibition of COX Enzymes in COS Cell Assays, COX-1 % inhibition
T3 construct: expressed in transfected cells; host or cells: Cos-A2 cells, stably transfected
T3 sequence (P23219 24-599): as above
Description: as §3, §2

Compound | inhibition at 0.1 µg/mL [1] [%] | inhibition at 1 µg/mL [1] [%] | inhibition at 10 µg/mL [1] [%] | inhibition at 0.1 µg/mL [2] [%] | inhibition at 1 µg/mL [2] [%] | inhibition at 10 µg/mL [2] [%] | Effect of Compounds in Carrageenen Paw Edema in Rats, % Inhibition [3] [%] | inhibition at 1 µM (human recombinant COX-2) [%] | inhibition at 10 µM (human recombinant COX-2) [%] | inhibition at 1 µM (human recombinant COX-1; 1 μM) [%] | inhibition at 10 µM (human recombinant COX-1; 10 μM) [%] | inhibition at 0.1 µM (human recombinant COX-2) [%] | inhibition at 0.1 µM (human recombinant COX-1; 0.1 μM) [%] | IC50 (human recombinant COX-2) [nM] | IC50 (human recombinant COX-1; COS cells, COX-1, read-out: Inhibition of COX Enzymes in COS Cell Assays, COX-1 IC50) [nM] | inhibition at 0.1 µM (human recombinant COX-1) [%] | inhibition at 1 µM (human recombinant COX-1) [%] | inhibition at 10 µM (human recombinant COX-1) [%]
O=C1c2ccccc2C(S(=O)(=O)c2ccc3ccccc3c2)C(=O)N1Cc1ccccc1 (stereo not shown) [Example 15] | -29 | 14 | 34 | 23 | 24 | 57 |  |  |  |  |  |  |  |  |  |  |  | 
O=C1c2ccccc2C(S(=O)(=O)c2ccc(Br)cc2)C(=O)N1Cc1ccccc1 (stereo not shown) [Example 13] | 28 | 92 | 100 | 44 | 74 | 100 |  |  |  |  |  |  |  |  |  |  |  | 
COc1ccc2c(c1)c(CC(=O)O)c(C)n2C(=O)c1ccc(Cl)cc1 [Indomethacin, reference compound] |  |  |  |  |  |  | 58 |  |  |  |  |  |  |  |  |  |  | 
CC(C)S(=O)(=O)C1C(=O)N(Cc2ccccc2F)C(=O)c2ccccc21 (stereo not shown) [Example 2, 2-(2-Fluorobenzyl)-4-(1-methylethyl)sulfonyl-4H-isoquinoline-1,3-dione] | 10 | 37 | 49 | -1 | 14 | 18 |  | 45 | 46 | 33 | 39 |  |  |  |  |  |  | 
CCCCS(=O)(=O)C1C(=O)N(Cc2ccccc2)C(=O)c2ccccc21 (stereo not shown) [Example 4] | 0 | 30 | 20 | 4 | 15 | 15 |  |  |  |  |  |  |  |  |  |  |  | 
O=C1c2ccccc2C(S(=O)(=O)c2cccs2)C(=O)N1Cc1ccccc1 (stereo not shown) [Example 21] | 12 | 46 | 48 | 17 | 14 | 67 |  | 80 | 89 | 67 | 94 | 65 | 35 |  |  |  |  | 
O=C1c2ccccc2C(S(=O)(=O)c2ccc([N+](=O)[O-])cc2)C(=O)N1Cc1ccccc1 (stereo not shown) [Example 20] | 20 | 37 | 46 | 21 | 41 | 62 |  |  |  |  |  |  |  |  |  |  |  | 
CC(C)S(=O)(=O)C1C(=O)N(Cc2ccc(F)c(F)c2)C(=O)c2ccccc21 (stereo not shown) [Example 9] | 8 | 75 | 80 | 10 | 17 | 57 |  |  |  |  |  |  |  | 200 | 570 |  |  | 
CC(C)S(=O)(=O)C1C(=O)N(Cc2ccccc2)C(=O)c2ccccc21 (stereo not shown) [Example 5] | 27 | 56 | 58 | -6 | 11 | 23 |  | 37 | 51 |  |  | 17 |  |  |  | 13 | 43 | 74
COc1ccc(S(=O)(=O)C2C(=O)N(Cc3ccccc3)C(=O)c3ccccc32)cc1 (stereo not shown) [Example 16] | 21 | 74 | 97 | 33 | 81 | 93 |  |  |  |  |  |  |  |  |  |  |  | 
CC(C)(C)c1ccc(S(=O)(=O)C2C(=O)N(Cc3ccccc3)C(=O)c3ccccc32)cc1 (stereo not shown) [Example 17] | 20 | 12 | 39 | 17 | 20 | 45 |  |  |  |  |  |  |  |  |  |  |  | 
CC(C)S(=O)(=O)C1C(=O)N(Cc2cccc(Cl)c2)C(=O)c2ccccc21 (stereo not shown) [Example 6] | 10 | 27 | 27 | -10 | 19 | 30 |  |  |  |  |  |  |  |  |  |  |  | 
O=C1c2ccccc2C(S(=O)(=O)c2ccc(F)cc2)C(=O)N1Cc1ccccc1 (stereo not shown) [Example 18] | 33 | 66 | 81 | 48 | 76 | 92 |  |  |  |  |  |  |  |  |  |  |  | 
CCCS(=O)(=O)C1C(=O)N(Cc2ccccc2)C(=O)c2ccccc21 (stereo not shown) [Example 3] | -6 | 15 | 27 | -9 | 22 | 33 |  |  |  |  |  |  |  |  |  |  |  | 
CC(C)S(=O)(=O)C1C(=O)N(Cc2ccc(F)cc2)C(=O)c2ccccc21 (stereo not shown) [Example 8] | -1 | 68 | 86 |  |  |  |  |  |  |  |  |  |  | 90 |  |  |  | 
CC(C)S(=O)(=O)C1C(=O)N(Cc2ccc(Cl)cc2)C(=O)c2ccccc21 (stereo not shown) [Example 7] | 3 | 62 | 67 | -3 | 4 | 36 |  | 52 | 74 | 46 | 72 | 26 | 6 |  |  |  |  | 
Cc1ccc(S(=O)(=O)C2C(=O)N(Cc3ccccc3)C(=O)c3ccccc32)cc1 (stereo not shown) [Example 14] | -13 | 63 | 100 | 59 | 93 | 100 |  |  |  |  |  |  |  |  |  |  |  | 
O=C1c2ccccc2C(S(=O)(=O)c2ccccc2)C(=O)N1Cc1ccccc1 (stereo not shown) [Example 12] |  |  |  | 17 | 59 | 74 |  |  |  | 61 | 85 |  | 22 |  |  |  |  | 
O=C1c2ccccc2C(S(=O)(=O)c2ccc(Cl)cc2)C(=O)N1Cc1ccccc1 (stereo not shown) [Example 19] | 59 | 89 | 93 | 52 | 71 | 89 |  |  |  |  |  |  |  |  |  |  |  | 
O=C1c2ccccc2C(S(=O)(=O)CC(F)(F)F)C(=O)N1Cc1ccccc1 (stereo not shown) [Example 11] | 23 | 32 | 52 | 4 | 21 | 50 |  | 0 | 30 | 0 | 64 |  |  | 64000 |  |  |  | 

Source: patent US5741798A, “2-benzyl-4-sulfonyl-4H-isoquinolin-1,3-diones and their use as antiinflammatory agents” (priority 1997, dated 1998)
